{"source": "paper PMC8584173", "about": "“The Cytotoxic Effect of Copper (II) Complexes with Halogenated 1,3-Disubstituted Arylthioureas on Cancer and Bacterial Cells” (International Journal of Molecular Sciences, 2021)", "key": {"[1]": {"tested_on": "Superoxide dismutase [Mn], mitochondrial (SODM_HUMAN)", "assay": "LC–MS proteome analysis, SODM", "type": "cell-based, Homo sapiens", "conditions": "IC50 concentration, % of control", "procedure": "(§1) Enzymes involved in oxidoreductive potential were analyzed in the cell lysates obtained after treatment cells with selected conjugates for 24 h. Cells were washed with phosphate-buffered saline (PBS) and harvested, then centrifuged at 1000× g for 10 min. Then, lysis buffer (containing protease inhibitor, 1% RIPA Lysis and Extraction Buffer (ThermoFisher)) and cold PBS were added, and samples were sonicated three times in ice bath. Next, the cell lysates were centrifuged at 14,000× g at 4 °C for 15 min, and then supernatants were stored at […] before use. Protein concentration was measured by the Bradford method.\n(§2) Normalized protein concentrations (5 µg) from cell lysate were precipitated by ice cold (–20 °C) acetonitrile (ACN, Merck, in ratio 1:4). Then, samples were centrifuged (–9 °C, 30 min., 18,000× g), the supernatant was discarded and ACN excess was evaporated using a vacuum centrifuge (5 min., room temp.). Protein pellet was dissolved in 40 mM ammonium bicarbonate. An amount of 500 mM dithiothreitol (DTT, with final concentration 20 mM) and 1 M iodoacetamide (IAA, with final concentration 40 mM) were used for reduction and alkylation processes. After 16 h of incubation in 37 °C with Trypsin Gold (Promega), digested protein samples were diluted with 0.1% formic acid (ThermoFisher) and centrifuged (+2 °C, 30 min, 18,000× g).\n(§3) LC–MS analysis was carried out with the use of nanoUHPLC (nanoElute, Bruker) coupled by CaptiveSpray (Bruker) to ESI-Q-TOF mass spectrometer (Compact, Bruker). Two-column separation method was used, i.e., pre-column (300 µm × 5 mm, C18 PepMap 100, 5 µm, 100Å, Thermo Scientific) and Aurora separation column with CSI fitting (75 µm × 250 mm, C18 1.6 µm) in gradient 2% B to 35% B in 90 min with the 300 nL/min flow rate. Mobile phases (A) 0.1% formic acid in water and (B) 0.1% formic acid in ACN were used.\n(§4) Sample ionizations were performed at a gas flow of 3.0 L/min, temperature of 150 °C and voltage of the capillary at 1600 V. The quadrupole energy was fixed to 5.0 eV and collision chamber energy 7.0 eV, with an ion transfer time of 90 µs. The ions were analyzed in the positive polarity mode in the range 150–2200 m/z, with the acquisition frequency of the 1 Hz spectrum, as well as with the autoMS/MS system.\n(§5) The collected spectra were analyzed and calibrated using DataAnalysis software (Bruker) and then identified in ProteinScape (Bruker) by the MASCOT server. Protein identification was conducted using the online SwissProt and NCBIprot databases, and their references and biological significance were identified using Reactome.org, String.org and KEGG."}, "[2]": {"tested_on": "Superoxide dismutase [Cu-Zn] (SODC_HUMAN)", "assay": "LC–MS proteome analysis, SODC", "type": "cell-based, Homo sapiens", "conditions": "IC50 concentration, % of control", "procedure": "as §1, §2, §3, §4, §5"}, "[3]": {"tested_on": "Peroxiredoxin-1 (PRDX1_HUMAN)", "assay": "LC–MS proteome analysis, PRDX1", "type": "cell-based, Homo sapiens", "conditions": "IC50 concentration, % of control", "procedure": "as §1, §2, §3, §4, §5"}, "[4]": {"tested_on": "Peroxiredoxin-6 (PRDX6_HUMAN)", "assay": "LC–MS proteome analysis, PRDX6", "type": "cell-based, Homo sapiens", "conditions": "IC50 concentration, % of control", "procedure": "as §1, §2, §3, §4, §5"}, "Candida species": {"tested_on": "Candida species", "assay": "MIC, Candida species", "type": "cell-based", "conditions": "studied Candida species", "procedure": "(§6) The antimicrobial activity of the compounds was tested on Gram-positive bacteria (Staphylococcus aureus NCTC 4163, Staphylococcus aureus ATCC 25923, Staphylococcus aureus ATCC 6538, Staphylococcus aureus ATCC 29213, Staphylococcus epidermidis ATCC 12228, Staphylococcus epidermidis ATCC 35984), Gram-negative rods (Escherichia coli ATCC 10538, Escherichia coli ATCC 25922, Pseudomonas aeruginosa ATCC 15442, Pseudomonas aeruginosa ATCC 27863) and yeasts (Candida albicans ATCC 10231, Candida albicans ATCC 90028, Candida parapsilosis ATCC 22019). Hospital methicillin-resistant strains of Staphylococcus aureus and Staphylococcus epidermidis were obtained from the collection of the Department of Pharmaceutical Microbiology, Medical University of Warsaw, Poland.\n(§7) Antifungal activities were assessed using Mueller–Hinton agar + 2% glucose and 0.5 µg/mL methylene blue dye medium. Sterile filter paper discs (9 mm diameter, Whatman Number 3 chromatography paper) were dripped with tested compound solutions (in dimethylsulfoxide, DMSO) to load 400 μg of a given compound per disc. Dry discs were placed on the surface of appropriate agar medium. The results (diameter of the growth inhibition zone) were read after 18 h of incubation at 35 °C. Minimal inhibitory concentration (MIC) was tested by the twofold serial microdilution method (in 96-well microtiter plates) using Mueller–Hinton broth medium (Beckton Dickinson) for bacteria or RPMI-1640 medium for Candida species, according to CLSI guidelines. The stock solution of tested agent was prepared in DMSO and diluted in sterile water. […] The final inoculum of all studied microorganisms was 10^5 CFU/ mL^−1 (colony forming units per ml). Minimal inhibitory concentrations (the lowest concentration of a tested agent that prevents visible growth of a microorganism) were read after 18 h (bacteria) or 24 h (yeasts) of incubation at 35 °C."}, "[5]": {"tested_on": "Thioredoxin-dependent peroxide reductase, mitochondrial (PRDX3_HUMAN)", "assay": "LC–MS proteome analysis, PRDX3", "type": "cell-based, Homo sapiens", "conditions": "IC50 concentration, % of control", "procedure": "as §1, §2, §3, §4, §5"}, "[6]": {"tested_on": "Glutathione S-transferase P (GSTP1_HUMAN)", "assay": "LC–MS proteome analysis, GSTP1", "type": "cell-based, Homo sapiens", "conditions": "IC50 concentration, % of control", "procedure": "as §1, §2, §3, §4, §5"}, "[7]": {"tested_on": "Glutathione S-transferase A1 (GSTA1_HUMAN)", "assay": "LC–MS proteome analysis, GSTA1", "type": "cell-based, Homo sapiens", "conditions": "for Protein Intensity, % (GSTA1): IC50 concentration, % of control", "procedure": "as §1, §2, §3, §4, §5"}, "[8]": {"tested_on": "Glutathione reductase, mitochondrial (GSHR_HUMAN)", "assay": "LC–MS proteome analysis, GSHR", "type": "cell-based, Homo sapiens", "conditions": "IC50 concentration, % of control", "procedure": "as §1, §2, §3, §4, §5"}, "[9]": {"tested_on": "Glutathione S-transferase omega-1 (GSTO1_HUMAN)", "assay": "LC–MS proteome analysis, GSTO1", "type": "cell-based, Homo sapiens", "conditions": "IC50 concentration, % of control", "procedure": "as §1, §2, §3, §4, §5"}, "[10]": {"tested_on": "hospital S. aureus (MRSA)", "assay": "MIC, hospital S. aureus", "type": "cell-based, Staphylococcus aureus", "conditions": "all evaluated hospital S. aureus", "procedure": "as §6, §7"}}, "data": [{"smiles": "O=[N+]([O-])c1cc([N+]2=C(Nc3ccc(Br)cc3)[S][Cu-2]23[S]C(Nc2ccc(Br)cc2)=[N+]3c2ccc(Cl)c([N+](=O)[O-])c2)ccc1Cl", "note": "[Compound 3, Copper (II) complex with 1-(4-bromophenyl)-3-(4-chloro-3-nitrophenyl)thiourea]", "values": [{"measurement": "Protein Intensity, % (SODM)", "setting": "[1]; PC3, 24 h", "result": 31.2, "unit": "%"}, {"measurement": "Protein Intensity, % (SODM)", "setting": "[1]; SW480, 24 h", "result": 77.7, "unit": "%"}, {"measurement": "Protein Intensity, % (SODM)", "setting": "[1]; SW620, 24 h", "result": 77.1, "unit": "%"}, {"measurement": "Protein Intensity, % (SODC)", "setting": "[2]; PC3, 24 h", "result": 30.9, "unit": "%"}, {"measurement": "Protein Intensity, % (SODC)", "setting": "[2]; SW480, 24 h", "result": 75.3, "unit": "%"}, {"measurement": "Protein Intensity, % (SODC)", "setting": "[2]; SW620, 24 h", "result": 78.2, "unit": "%"}, {"measurement": "Protein Intensity, % (PRDX1)", "setting": "[3]; PC3, 24 h", "result": 47.8, "unit": "%"}, {"measurement": "Protein Intensity, % (PRDX1)", "setting": "[3]; SW480, 24 h", "result": 88.5, "unit": "%"}, {"measurement": "Protein Intensity, % (PRDX1)", "setting": "[3]; SW620, 24 h", "result": 89.0, "unit": "%"}, {"measurement": "Protein Intensity, % (PRDX6)", "setting": "[4]; PC3, 24 h", "result": 71.1, "unit": "%"}, {"measurement": "Protein Intensity, % (PRDX6)", "setting": "[4]; SW480, 24 h", "result": 81.3, "unit": "%"}, {"measurement": "Protein Intensity, % (PRDX6)", "setting": "[4]; SW620, 24 h", "result": 66.4, "unit": "%"}, {"measurement": "growth inhibitory dose", "setting": "Candida species", "result": 64, "unit": "µg/mL"}, {"measurement": "Protein Intensity, % (PRDX3)", "setting": "[5]; PC3, 24 h", "result": 57.3, "unit": "%"}, {"measurement": "Protein Intensity, % (PRDX3)", "setting": "[5]; SW480, 24 h", "result": 85.4, "unit": "%"}, {"measurement": "Protein Intensity, % (PRDX3)", "setting": "[5]; SW620, 24 h", "result": 67.5, "unit": "%"}, {"measurement": "Protein Intensity, % (GSTP1)", "setting": "[6]; PC3, 24 h", "result": 51.1, "unit": "%"}, {"measurement": "Protein Intensity, % (GSTP1)", "setting": "[6]; SW480, 24 h", "result": 75.9, "unit": "%"}, {"measurement": "Protein Intensity, % (GSTP1)", "setting": "[6]; SW620, 24 h", "result": 64.5, "unit": "%"}, {"measurement": "Protein Intensity, % (GSTA1)", "setting": "[7]; PC3, 24 h", "result": 70.6, "unit": "%"}, {"measurement": "Protein Intensity, % (GSTA1)", "setting": "[7]; SW480, 24 h", "result": 86.6, "unit": "%"}, {"measurement": "Protein Intensity, % (GSTA1)", "setting": "[7]; SW620, 24 h", "result": 45.2, "unit": "%"}, {"measurement": "decrease in the amount of GSTA1", "setting": "[7]; SW620, IC50 concentration", "result": 54.8, "unit": "%"}, {"measurement": "Protein Intensity, % (GSHR)", "setting": "[8]; PC3, 24 h", "result": 58.9, "unit": "%"}, {"measurement": "Protein Intensity, % (GSHR)", "setting": "[8]; SW480, 24 h", "result": 63.1, "unit": "%"}, {"measurement": "Protein Intensity, % (GSHR)", "setting": "[8]; SW620, 24 h", "result": 79.2, "unit": "%"}, {"measurement": "Protein Intensity, % (GSTO1)", "setting": "[9]; PC3, 24 h", "result": 64.0, "unit": "%"}, {"measurement": "Protein Intensity, % (GSTO1)", "setting": "[9]; SW480, 24 h", "result": 66.0, "unit": "%"}, {"measurement": "Protein Intensity, % (GSTO1)", "setting": "[9]; SW620, 24 h", "result": 77.0, "unit": "%"}, {"measurement": "MIC", "setting": "[10]", "result": 4, "unit": "µg/mL"}]}]}
